In ChEMBL document CHEMBL3044708, “The trifluoromethyl transformation synthesis, crystal structure and insecticidal activities of novel 2-pyrrolecarboxamide and 2-pyrrolecarboxlate” (2012) one finds mortality data, which are given here for eleven compounds.

Holding throughout (type): functional
Test [1] has as its system Tetranychus cinnabarinus. Nature of the test: Acaricidal activity against Tetranychus cinnabarinus (carmine spider mite) assessed as mortality at 200 mg/L.
In test [2] the test system is Tetranychus cinnabarinus. Nature of the test: Acaricidal activity against Tetranychus cinnabarinus (carmine spider mite) eggs assessed as mortality at 200 mg/L. To be noted: Egg.
Test [3] has as its system Mythimna separata. Nature of the test: Insecticidal activity against Mythimna separata (Oriental armyworm) assessed as mortality at 200 mg/L.
For test [4], the system named is Tetranychus cinnabarinus. Nature of the test: Acaricidal activity against Tetranychus cinnabarinus (carmine spider mite) larvae assessed as mortality at 200 mg/L.
Test [5] concerns Mythimna separata. Nature of the test: Insecticidal activity against Mythimna separata (Oriental armyworm) assessed as mortality at 50 mg/L.
In test [6] the test system is Mythimna separata. Nature of the test: Insecticidal activity against Mythimna separata (Oriental armyworm) assessed as mortality at 100 mg/L.
Test [7] concerns Mythimna separata. Nature of the test: Insecticidal activity against Mythimna separata (Oriental armyworm) assessed as mortality at 25 mg/L.
Test [8] has as its system Tetranychus cinnabarinus. Nature of the test: Acaricidal activity against Tetranychus cinnabarinus (carmine spider mite) assessed as mortality at 100 mg/L.
Test [9] deals with Tetranychus cinnabarinus. Nature of the test: Acaricidal activity against Tetranychus cinnabarinus (carmine spider mite) larvae assessed as mortality at 100 mg/L.
In test [10] the test system is Tetranychus cinnabarinus. Nature of the test: Acaricidal activity against Tetranychus cinnabarinus (carmine spider mite) eggs assessed as mortality at 100 mg/L. To be noted: Egg.

A word on the mortality: it is the share of the test organisms that died. Consider `N#Cc1cc(C(=O)Nc2ccc(C(F)(F)F)cc2)[nH]c1-c1ccc(Br)cc1`, for which the mortality at 200 µg/mL in test [1], in test [2], in test [3] and in test [4] was 0% throughout.

Regarding `N#Cc1cc(C(=O)Nc2ccc(C(F)(F)F)cc2)[nH]c1-c1ccc(Cl)cc1`, the mortality at 200 µg/mL in [1], in [2], in test [3] and in test [4] was 0% in each case.

Regarding `N#Cc1c(-c2ccc(Cl)cc2)[nH]c(C(=O)Nc2ccc(C(F)(F)F)cc2)c1Br`, the mortality at 200 µg/mL in test [1], in test [2], in test [3] and in test [4] was 0% each time.

For `N#Cc1c(-c2ccc(Cl)cc2)[nH]c(C(=O)NC2CCCCC2)c1Br`, the mortality at 200 µg/mL in [1] came out at 0%; in test [2], 0%; in test [3], 80%; in test [4], 0%.

For `CCN(CC)C(=O)c1[nH]c(-c2ccc(Cl)cc2)c(C#N)c1Br`, the mortality at 200 µg/mL in [1], in test [2], in [3] and in test [4] was 0% throughout.

For the compound `N#Cc1c(-c2ccc(Cl)cc2)[nH]c(C(=O)NCc2ccccc2)c1Br`, the mortality at 200 µg/mL in [1], in [2], in test [3] and in test [4] was 0% in each case.

In the case of `COC(=O)c1[nH]c(-c2ccc(Cl)cc2)c(C#N)c1Br`, the mortality at 200 µg/mL in [1] was found to be 60%; in test [2] it was 0%; in [3], 100%; in test [4], 40%. The mortality at 50 µg/mL in [5] is 40%. For the same compound, the mortality at 100 µg/mL in test [6] came to 100%. In [7], the mortality at 25 µg/mL turned out to be 0%.

Take `CCOC(=O)c1[nH]c(-c2ccc(Cl)cc2)c(C#N)c1Br`: the mortality at 200 µg/mL amounted to 78% in [1], 81% in test [2], 100% in [3] and 76% in test [4]. In addition, the mortality at 100 µg/mL was found to be 40% in [8], 100% in test [6], 52% in [9] and 54% in test [10]. In addition, the mortality at 50 µg/mL in test [5] was 60%. The mortality at 25 µg/mL in test [7] was found to be 0%.

As for `N#Cc1c(-c2ccc(Cl)cc2)[nH]c(C(=O)OCc2ccccc2)c1Br`, the mortality at 200 µg/mL in [1] was determined as 0%; in [2], 0%; in [3], 100%; in [4] it was 0%. The mortality at 50 µg/mL in [5] turned out to be 100%. The mortality at 100 µg/mL in [6] turned out to be 100%. In addition, in test [7], the mortality at 25 µg/mL is 0%.

For `N#Cc1c(-c2ccc(Cl)cc2)[nH]c(C(F)(F)F)c1Br`, the mortality at 200 µg/mL in test [1], in test [2], in test [3] and in test [4] was 100% each time. For the same compound, the mortality at 100 µg/mL in test [8], in test [6], in [9] and in [10] was 100% each time. Further, the mortality at 50 µg/mL in test [5] is 100%. For the same compound, the mortality at 25 µg/mL in test [7] is 100%.

`CCOCn1c(-c2ccc(Cl)cc2)c(C#N)c(Br)c1C(F)(F)F` [CHLORFENAPYR]: the mortality at 200 µg/mL in [1], in test [2], in [3] and in [4] was 100% in each case. In addition, the mortality at 100 µg/mL in test [8], in [6], in test [9] and in test [10] was 100% in each case. In addition, the mortality at 50 µg/mL in test [5] came out at 100%. Further, the mortality at 25 µg/mL in test [7] came to 100%.
